Results as given in paper PMC9916969 (International Journal of Molecular Sciences, 2023).
Values joined by “and” are separate entries in the source; they are usually repeats but may differ in a detail not shown here. Equal entries are not always repeated. Where two headings read alike, the source gives them in different places.

Legend:
equine serum BChE = molecular target: T1, equine serum BChE (Equus caballus, UniProt P81908); assay: biochemical; settings: mean ± SEM, n = 3, read-out: Inhibitory activity against BChE, IC50
T1 construct: human erythrocyte AChE, equine serum BChE, and porcine liver CES were used; purchased Sigma-Aldrich; host or cells: equine serum (tissue-derived)
From the text: (§1) Assessment of the esterase profile of new potential anti-AD molecules enables the estimation of both the primary pharmacological effects of the tested compounds—their inhibition of AChE and BChE—and their possible unwanted side effect—inhibition of CES, which hydrolyzes numerous ester-containing drugs. For the esterase profile evaluation, human erythrocyte AChE, equine serum BChE, and porcine liver CES were used. These sources of BChE and CES were employed because of their relatively low cost, high sequence identity to human enzymes, and the exploratory character of this work.
(§2) Chromophore absorbances were measured with a FLUOStar Optima microplate reader (BMG Labtech, Ortenberg, Germany). […] Initially, we used a single concentration of 20 µM for all compounds.

human erythrocyte AChE = molecular target: T2, human erythrocyte AChE (Homo sapiens, UniProt P22303); assay: biochemical; settings: mean ± SEM, n = 3, read-out: Inhibitory activity against AChE, IC50
T2 construct: human erythrocyte AChE, equine serum BChE, and porcine liver CES were used; purchased Sigma-Aldrich; host or cells: human erythrocytes (tissue-derived)
From the text: as §1, §2

porcine liver CES = assay: In vitro CES inhibition (4-NPA substrate); assay type: biochemical; settings: compound 20 µM, n.a. = not active
From the text: as §1, §2

EeAChE PAS = molecular target: T3, EeAChE PAS (Electrophorus electricus, UniProt O42275); assay type: binding; settings: compound 20 µM; EeAChE 7 µM; propidium iodide 8 µM
T3 construct: The enzyme was electric eel AChE (EeAChE type VI-S, lyophilized powder, Sigma-Aldrich); purchased Sigma-Aldrich type VI-S; host or cells: electric eel (tissue-derived)
From the text: This method is widely used as a screening approach to assess the potential ability of compounds to block AChE-induced β-amyloid aggregation. This is because when the compounds bind to the AChE PAS, they prevent the binding of β-amyloid, thereby inhibiting its aggregation.
The enzyme was electric eel AChE (EeAChE type VI-S, lyophilized powder, Sigma-Aldrich). We selected this source of AChE for consistency with our other reports and because of the purity, specific activity, and lower cost compared to human AChE.
Propidium iodide (final concentration 8 μM) was then added for a further 15 min incubation, and the fluorescence spectrum was taken (530 nm excitation and 600 nm emission) using a FLUOStar Optima microplate reader. The same concentration of propidium iodide in the Tris buffer was used as the blank. Triplicate determinations were recorded and the results were calculated via the following equation:% Displacement = 100 − (IFAChE+ Propidium + inhibitor/IFAChE + Propidium) × 100, where IFAChE + Propidium = fluorescence intensity of propidium iodide associated with AChE in the absence of the test compound (taken as 100%), and IFAChE + Propidium + inhibitor = fluorescence intensity of propidium iodide associated with AChE in the presence of the test compound.

β-amyloid (1–42) (Aβ42) = β-amyloid (1–42) (Aβ42) (Homo sapiens, UniProt P05067); assay: Inhibition of Aβ42 self-aggregation (thioflavin T); assay type: biochemical; settings: for inhibition at 100 µM: read-out: Inhibition of Aβ42 Self-Aggregation
Method: The inhibitory activity of tested hybrids against the self-aggregation of Aβ42 was determined in vitro using the thioflavin T (ThT) fluorimetric assay. According to [84], the ThT test is ideal for preliminary screening of inhibitors of Aβ42 self-aggregation, as it enables the quantitative testing of large numbers of compounds within a relatively short time.
The influence of the inhibitory effect of the test compounds toward Aβ42 self-aggregation was determined using the thioflavin T (ThT) fluorescence method with minor modifications. This assay is based on a specific interaction between the fluorescent dye thioflavin T that binds to the β-sheets of assembled amyloid fibrils leading to a significant increase in fluorescence signal. Therefore, the decrease in ThT fluorescence correlates with the ability of the studied compounds to inhibit the formation of amyloid aggregates.
One mg of lyophilized HFIP-pretreated Aβ42 from BACHEM (Bubendorf, Switzerland) was dissolved in DMSO to obtain a stable initial solution ([Aβ42] = 500 μM); then it was aliquoted and stored at −20 °C.
For the measurement of Aβ42 self-aggregation and amyloid fibril inhibition studies by the tested compounds, aliquots of 500 μM Aβ42 stock solution were diluted in 215 mM Na-phosphate buffer pH = 8.0 to a final concentration of 50 μM Aβ42. Then the samples were incubated for 24 h at 37 °C without stirring in the absence (base level of Aβ42 self-aggregation, control) or presence of the test compounds. Myricetin and propidium iodide were used as reference compounds (positive controls). All compounds were used in a concentration of 100 µM. To quantify Aβ42 fibril formation, after incubation, 5 μM ThT in 50 mM glycine-NaOH buffer pH 8.5 was added to the solutions to a final concentration of 4 μM ThT and the fluorescence was measured at 440 nm (excitation) and 485 nm (emission). Analyses were performed with a FLUOStar Optima microplate reader (LabTech, Ortenberg, Germany). The blanks consisted of 215 mM Na-phosphate buffer, pH = 8.0, 20% (v/v) DMSO or test compounds, respectively. Each assay was run in triplicate.

[1] = ABTS radical cation scavenging assay; design: key to ABTS^•+ Scavenging Activity, TEAC: TEAC: ratio of compound slope to Trolox slope (Trolox equivalents); settings: 1 h incubation; for IC50: 50% reduction of ABTS radical cation; for ABTS^•+ Scavenging Activity, TEAC: Trolox equivalent, n.a. = not active
Method: In the ABTS assay, the dark-green ABTS cation-radical (ABTS^•+) is quenched by interaction with AOs. The consequent decrease in absorbance is followed spectrophotometrically per the previously described method.
Radical scavenging activity of the compounds was assessed using the ABTS radical cation (ABTS^•+) decolorization assay with some modifications. ABTS (2,2′-azinobis-(3-ethylbenzothiazoline-6-sulfonic acid) was purchased from Tokyo Chemical Industry Co., Ltd. (Tokyo, Japan); potassium persulfate (dipotassium peroxodisulfate), Trolox (6-hydroxy-2,5,7,8-tetramethylchroman-2-carboxylic acid), and HPLC-grade ethanol and DMSO were obtained from Sigma-Aldrich (Saint Louis, MO, USA). Aqueous solutions were prepared using deionized water. All tested compounds were dissolved in DMSO.
The solution of cation radical ABTS^•+ was produced by incubation of an aqueous solution of 7 mM ABTS and 2.45 mM potassium persulfate solution in equal quantities for 12–16 h at room temperature in the dark. Radical scavenging capacity of the compounds was analyzed by mixing 10 μL of compound with 240 μL of ABTS^•+ working solution in ethanol (100 μM final concentration). The reaction was monitored for an hour at 30 °C with an interval of 10 min. Data are given for 1 h of incubation of compounds with ABTS^•+. The reduction in absorbance was measured spectrophotometrically at 734 nm using an xMark microplate UV/VIS spectrophotometer (Bio-Rad, Hercules, CA, USA). Ethanol blanks were run in each assay. Values were obtained from five replicates of each sample and three independent experiments.
The standard AO Trolox was used as a reference compound. AO capacity as Trolox equivalent (TEAC) values was determined as the ratio between the slopes obtained from the linear correlation of the ABTS radical absorbance with the concentrations of tested compounds and Trolox. Ascorbic acid was used as a positive control. […]. The compounds were tested in the concentration range of 0.5–100 µM.

FRAP assay = settings: Trolox equivalents; 60 min, 37 °C; n.a. = not active
Method: The Ferric Reducing Antioxidant Power (FRAP) test involves reduction of the ferric 2,4,6-tripyridyl-s-triazine complex [Fe(TPTZ)2]^3+ to an intense-blue ferrous complex [Fe(TPTZ)2]^2+ [92], as previously reported. Results are given as Trolox Equivalents (TE).
The FRAP (ferric reducing antioxidant power) assay proposed by Benzie and Strain [92] was modified to be performed in 96-well microplates as described in detail in [53]. The FRAP reagent contained 2.5 mL of 10 mM TPTZ (2,4,6-tris(2-pyridyl)-s-triazine, Sigma-Aldrich) solution in 40 mM HCl, 2.5 mL of 20 mM FeCl3 (Sigma-Aldrich) in distilled water and 25 mL of 0.3 M acetate buffer (pH 3.6). Aliquots of 10 µL of the test compound dissolved in DMSO (0.5 mM) were placed in quadruplicate. Absorbance was measured at a wavelength of 593 nm after 60 min incubation at 37 °C. In each case, Trolox was used as a reference compound to obtain the standard curve. The AO activity was calculated with respect to the activity of Trolox and expressed as Trolox equivalents (TE)—the values calculated as the ratio of the concentrations of Trolox and the test compound resulting in the same effect on ferric reducing activity.

AChE = molecular target: T4, AChE (Homo sapiens, UniProt P22303); assay: Kinetic study of AChE inhibition (Lineweaver-Burk); assay type: biochemical; settings: mixed-type inhibition; mean ± SEM
T4 construct: human erythrocyte AChE, equine serum BChE, and porcine liver CES were used; purchased Sigma-Aldrich; host or cells: human erythrocytes (tissue-derived)
Method: (§3) We assessed the mechanisms of AChE and BChE inhibition by performing a thorough analysis of enzyme kinetics. After a 5 min incubation at 25 °C (for temperature equilibration) with three increasing concentrations of inhibitor and six decreasing substrate concentrations, the residual enzyme activity was measured as described above for enzymatic assays.

eqBChE = molecular target: T5, eqBChE (Equus caballus, UniProt P81908); assay: Kinetic study of BChE inhibition (Lineweaver-Burk); assay type: biochemical; settings: mixed-type inhibition, mean ± SEM
T5 construct: human erythrocyte AChE, equine serum BChE, and porcine liver CES were used; purchased Sigma-Aldrich; host or cells: equine serum (tissue-derived)
Method: Similar results were obtained for other tested compounds (Figures S61 and S62). The obtained values of inhibition constants (Ki = competitive component and αKi = non-competitive component) are shown in Table 2.
as §3

[2] = Aβ42 50 µM, compound 100 µM, 24 h, 37 °C, thioflavin T

T2 sequence (P22303 32-617 isoform P22303-2 limits assumed): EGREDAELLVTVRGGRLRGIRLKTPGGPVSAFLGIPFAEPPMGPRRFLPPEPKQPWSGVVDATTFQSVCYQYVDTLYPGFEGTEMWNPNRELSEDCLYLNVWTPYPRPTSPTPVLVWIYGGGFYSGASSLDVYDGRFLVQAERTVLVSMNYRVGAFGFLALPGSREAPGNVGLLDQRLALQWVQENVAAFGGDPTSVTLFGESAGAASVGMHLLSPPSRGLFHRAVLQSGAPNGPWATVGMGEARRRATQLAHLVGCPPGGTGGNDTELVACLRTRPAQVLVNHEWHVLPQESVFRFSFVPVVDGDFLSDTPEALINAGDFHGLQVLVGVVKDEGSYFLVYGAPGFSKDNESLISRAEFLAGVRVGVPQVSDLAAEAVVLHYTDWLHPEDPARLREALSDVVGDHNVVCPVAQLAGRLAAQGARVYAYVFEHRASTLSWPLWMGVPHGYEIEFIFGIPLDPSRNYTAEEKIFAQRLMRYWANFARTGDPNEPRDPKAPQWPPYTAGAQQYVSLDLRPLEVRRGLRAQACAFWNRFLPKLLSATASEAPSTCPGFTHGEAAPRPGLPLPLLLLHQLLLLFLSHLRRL
β-amyloid (1–42) (Aβ42), sequence (P05067 672-713 limits assumed): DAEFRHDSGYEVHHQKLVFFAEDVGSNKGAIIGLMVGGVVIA
T3 sequence (O42275 24-633): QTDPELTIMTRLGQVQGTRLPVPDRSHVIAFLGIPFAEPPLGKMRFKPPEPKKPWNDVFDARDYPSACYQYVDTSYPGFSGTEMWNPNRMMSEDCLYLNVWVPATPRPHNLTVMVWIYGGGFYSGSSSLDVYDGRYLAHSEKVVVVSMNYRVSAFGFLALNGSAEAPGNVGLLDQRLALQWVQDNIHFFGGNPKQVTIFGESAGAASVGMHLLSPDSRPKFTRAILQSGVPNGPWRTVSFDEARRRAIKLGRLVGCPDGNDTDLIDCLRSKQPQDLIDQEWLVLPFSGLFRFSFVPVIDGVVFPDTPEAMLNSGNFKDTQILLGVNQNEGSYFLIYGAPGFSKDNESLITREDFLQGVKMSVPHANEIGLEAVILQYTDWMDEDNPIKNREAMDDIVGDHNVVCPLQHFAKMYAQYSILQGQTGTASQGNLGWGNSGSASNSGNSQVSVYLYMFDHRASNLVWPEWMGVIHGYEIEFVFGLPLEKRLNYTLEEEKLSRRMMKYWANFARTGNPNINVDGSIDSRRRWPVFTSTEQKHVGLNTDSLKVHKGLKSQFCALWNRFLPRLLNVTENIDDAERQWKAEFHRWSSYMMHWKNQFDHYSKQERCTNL
T1 sequence (P81908 whole entry): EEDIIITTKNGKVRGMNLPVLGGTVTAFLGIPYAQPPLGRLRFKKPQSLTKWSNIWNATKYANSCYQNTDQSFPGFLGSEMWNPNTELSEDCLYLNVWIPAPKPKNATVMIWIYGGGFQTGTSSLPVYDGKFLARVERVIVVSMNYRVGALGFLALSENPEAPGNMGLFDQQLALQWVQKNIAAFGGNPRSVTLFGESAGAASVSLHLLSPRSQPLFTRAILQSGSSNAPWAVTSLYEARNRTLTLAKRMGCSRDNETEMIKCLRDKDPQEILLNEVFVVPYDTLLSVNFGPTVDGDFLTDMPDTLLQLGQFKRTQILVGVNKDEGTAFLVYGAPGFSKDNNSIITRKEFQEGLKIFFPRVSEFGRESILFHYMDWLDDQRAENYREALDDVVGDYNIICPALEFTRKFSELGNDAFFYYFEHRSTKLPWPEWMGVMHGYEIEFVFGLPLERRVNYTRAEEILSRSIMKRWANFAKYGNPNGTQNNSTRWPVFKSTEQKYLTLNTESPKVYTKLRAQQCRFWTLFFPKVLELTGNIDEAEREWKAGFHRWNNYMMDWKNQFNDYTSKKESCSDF
T5 sequence (P81908 whole entry): as above
T4 sequence (P22303 32-617 isoform P22303-2 limits assumed): as the sequence (P22303 32-617 isoform P22303-2 limits assumed) above

| Structure (SMILES) | IC50 (equine serum BChE) [nM] | IC50 (human erythrocyte AChE) [nM] | Inhibitory activity against CES, inhibition at 20 µM (porcine liver CES) [%] | Propidium Displacement from EeAChE PAS (EeAChE PAS) [%] | inhibition at 100 µM (β-amyloid (1–42) (Aβ42); [2]) [%] | IC50 [1] [nM] | ABTS^•+ Scavenging Activity, TEAC [1] | FRAP, TE (FRAP assay) | αKi (non-competitive inhibition constant), AChE (AChE) [µM] | αKi (non-competitive inhibition constant), eqBChE (eqBChE) [µM] | Ki (eqBChE; read-out: Ki (competitive inhibition constant), eqBChE) [nM] | Inhibition of Aβ42 Self-Aggregation (β-amyloid (1–42) (Aβ42); [2]) [%] | inhibition at 100 µM (β-amyloid (1–42) (Aβ42)) [%] |
| --- | --- | --- | --- | --- | --- | --- | --- | --- | --- | --- | --- | --- | --- |
| O=C(NCCCCNc1c2c(nc3ccccc13)CCCC2)c1cc(F)c(F)cc1O [7a, 4,5-Difluoro-2-hydroxy-N-[4-(1,2,3,4-tetrahydroacridin-9-ylamino)butyl]benzamide] | 29.1 ± 2.2 | 500 ± 30 | 4.3 ± 0.9 | 10.4 ± 0.9 | 17.4 ± 1.2 | > 200000 | 0.06 and 0.060 ± 0.002 | – | – | – | – | – | – |
| O=C(NCCCCNc1c2c(nc3ccccc13)CCCC2)c1ccccc1O [5a] | – | – | 1.6 ± 1.1 | 11.8 ± 0.9 | 20.7 ± 1.6 | 25300 ± 1100 | 0.73 ± 0.04 | 0.02 | – | – | – | – | – |
| O=C1O[C@H]([C@@H](O)CO)C(O)=C1O [Ascorbic acid, reference compound] | – | – | – | – | – | 22600 ± 1200 | 0.96 ± 0.03 | 1.28 ± 0.11 | – | – | – | – | – |
| O=C(NCCCCCCCCNc1c2c(nc3ccccc13)CCCC2)c1ccccc1O [5c] | 10.4 ± 1.3 | – | 29.5 ± 2.5 | 14.2 ± 1.1 | 71.9 ± 5.7 | 25500 ± 1100 | 0.75 ± 0.04 | – | 0.263 ± 0.018 | 0.0171 ± 0.0013 | 10.6 ± 0.7 | – | – |
| COc1cc(F)c(F)cc1C(=O)NCCCCNc1c2c(nc3ccccc13)CCCC2 [8a, 4,5-Difluoro-2-methoxy-N-[4-(1,2,3,4-tetrahydroacridin-9-ylamino)butyl]benzamide] | 54.7 ± 3.4 | 1220 ± 70 | 6.5 ± 1.1 | 13.2 ± 1.0 | 10.4 ± 0.9 | – | – | 0.03 | – | – | – | – | – |
| CC[N+](C)(CC)CCC[n+]1c(-c2ccccc2)c2cc(N)ccc2c2ccc(N)cc21.[I-].[I-] [Propidium iodide, reference compound] | – | – | – | – | – | – | – | – | – | – | – | 90.7 ± 7.1 | – |
| O=C(O)c1ccccc1O [Salicylic acid, reference compound] | 47600 ± 3200 | – | 8.9 ± 0.6 | – | – | – | no antiradical activity | 0.02 | – | – | – | – | 6.5 ± 1.2 |
| Cc1c(C)c2c(c(C)c1O)CCC(C)(C(=O)O)O2 (stereo not shown) [Trolox, 6-hydroxy-2,5,7,8-tetramethylchroman-2-carboxylic acid, reference compound] | – | – | – | – | – | 19800 ± 800 | 1.00 | 1.00 | – | – | – | – | – |
| COc1ccccc1C(=O)NCCCCNc1c2c(nc3ccccc13)CCCC2 [6a] | 10.5 ± 0.7 | 1920 ± 130 | 3.4 ± 0.7 | 10.2 ± 0.9 | 12.3 ± 0.9 | – | 0.02 (n.a.) | 0.03 | – | – | – | – | – |
| Oc1ccccc1C=NCCCCNc1c2c(nc3ccccc13)CCCC2 [10a, 2-[4-(1,2,3,4-Tetrahydroacridin-9-ylamino)butyliminomethyl]phenol] | 127 ± 6 | 743 ± 44 | 20.8 ± 0.4 | 18.6 ± 1.6 | 57.9 ± 4.6 | 35800 ± 1900 | 0.42 ± 0.03 | 0.02 | – | – | – | – | – |
